For data set [1], the target named is T1, Histamine H3 receptor (Homo sapiens, UniProt Q9Y5N1). Briefly: Binding affinity to human histamine H3 receptor.
In data set [2] the target is T1, Histamine H3 receptor. The experiment in a line: Antagonist activity at human histamine H3 receptor. The data set is classed as functional. To be noted: read-out: pA2 (converted).
Data set [3] is described as follows: Metabolic stability in human liver microsomes assessed as half life. The data set is classed as ADME, Microsome. (Liver microsomes are a subcellular fraction often used to study metabolism.)
Data set [4] is described as follows: Metabolic stability in rat liver microsomes assessed as half life. The data set is classed as ADME, Microsome.
The target of another data set is T2, Cytochrome P450 1A2 (Homo sapiens, UniProt P05177).
T2 sequence (P05177 whole entry): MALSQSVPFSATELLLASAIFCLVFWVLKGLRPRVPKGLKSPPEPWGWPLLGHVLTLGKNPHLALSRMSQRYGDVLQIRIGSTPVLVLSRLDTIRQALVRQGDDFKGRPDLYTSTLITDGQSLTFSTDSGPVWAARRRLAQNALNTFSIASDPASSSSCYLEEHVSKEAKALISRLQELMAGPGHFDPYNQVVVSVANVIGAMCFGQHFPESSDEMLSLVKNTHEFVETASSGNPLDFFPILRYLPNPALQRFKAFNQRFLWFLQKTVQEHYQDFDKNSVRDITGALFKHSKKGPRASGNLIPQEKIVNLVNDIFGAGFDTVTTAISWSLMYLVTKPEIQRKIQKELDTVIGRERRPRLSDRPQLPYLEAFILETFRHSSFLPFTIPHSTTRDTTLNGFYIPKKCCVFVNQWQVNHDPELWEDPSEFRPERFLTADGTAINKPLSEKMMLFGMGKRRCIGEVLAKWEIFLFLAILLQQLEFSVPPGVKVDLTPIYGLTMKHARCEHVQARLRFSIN
The experiment in a line: Inhibition of CYP1A2. The data set is classed as ADME.

Data set [5] is described as follows: Clearance in rat at 10 mg/kg, iv. The data set is classed as ADME, organism-based. Set-up: dose 10 mg/kg, route intravenous. As to conditions: in vivo.
Data set [6] is described as follows: Half life in rat at 10 mg/kg, po. In kind it is ADME, organism-based. Set-up: dose 10 mg/kg, route oral. As to conditions: in vivo.
Another data set concerns the target Cytochrome P450 2C9 (Homo sapiens, UniProt P11712). The experiment in a line: Inhibition of CYP2C9. In kind it is ADME.
Data set [7] is described as follows: Volume of distribution in rat at 10 mg/kg, iv. In kind it is ADME, organism-based. To be noted: in vivo. More on the design: dose 10 mg/kg, route intravenous.
A further data set deals with Cytochrome P450 2D6 (Homo sapiens, UniProt P10635). Briefly: Inhibition of CYP2D6. The data set is classed as ADME.
Cytochrome P450 2D6, sequence (P10635 whole entry): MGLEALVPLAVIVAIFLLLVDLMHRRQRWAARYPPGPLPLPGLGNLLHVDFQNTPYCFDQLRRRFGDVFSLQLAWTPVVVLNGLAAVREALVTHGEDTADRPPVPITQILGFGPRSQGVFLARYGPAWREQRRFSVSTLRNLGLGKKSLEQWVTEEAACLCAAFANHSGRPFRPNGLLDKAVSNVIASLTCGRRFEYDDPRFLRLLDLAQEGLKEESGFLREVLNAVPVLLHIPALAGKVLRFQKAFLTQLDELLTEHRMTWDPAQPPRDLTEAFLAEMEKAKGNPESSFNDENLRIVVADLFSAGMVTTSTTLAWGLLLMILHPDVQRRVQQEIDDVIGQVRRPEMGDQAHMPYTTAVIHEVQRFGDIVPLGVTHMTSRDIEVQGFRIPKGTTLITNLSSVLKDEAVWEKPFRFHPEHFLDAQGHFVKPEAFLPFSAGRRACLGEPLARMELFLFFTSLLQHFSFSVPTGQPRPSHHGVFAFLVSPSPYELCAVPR
The next data set addresses Cytochrome P450 3A4 (Homo sapiens, UniProt P08684). The experiment in a line: Inhibition of CYP3A4. In kind it is ADME.
Data set [8] is described as follows: Plasma concentration in rat 10 mg/kg, ip after 60 mins. The data set is classed as ADME, organism-based. Set-up: dose 10 mg/kg, route intraperitoneal.
The target in data set [9] is Histamine H3 receptor (Rattus norvegicus, UniProt Q9QYN8). Briefly: Antagonist activity at rat histamine H3 receptor. The data set is classed as functional. To be noted: read-out: pA2 (converted).
Histamine H3 receptor (Rattus norvegicus, UniProt Q9QYN8), sequence (Q9QYN8 whole entry): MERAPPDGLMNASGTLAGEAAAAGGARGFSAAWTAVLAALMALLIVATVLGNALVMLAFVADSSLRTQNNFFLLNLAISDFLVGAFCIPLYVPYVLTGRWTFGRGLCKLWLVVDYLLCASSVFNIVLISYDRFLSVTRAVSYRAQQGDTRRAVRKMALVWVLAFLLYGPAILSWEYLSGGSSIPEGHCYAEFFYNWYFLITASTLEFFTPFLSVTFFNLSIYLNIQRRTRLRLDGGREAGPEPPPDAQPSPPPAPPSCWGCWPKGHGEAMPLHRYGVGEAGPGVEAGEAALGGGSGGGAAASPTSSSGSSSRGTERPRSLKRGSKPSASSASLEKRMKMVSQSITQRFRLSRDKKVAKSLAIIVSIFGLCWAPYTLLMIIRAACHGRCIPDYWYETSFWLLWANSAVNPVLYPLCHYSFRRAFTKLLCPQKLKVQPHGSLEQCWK
Data set [10] can be described thus: Drug level in rat brain at 10 mg/kg, ip after 60 mins. The data set is classed as ADME, organism-based. To be noted: read-out: Drug uptake. Set-up: dose 10 mg/kg, route intraperitoneal.
Another data set deals with Cytochrome P450 2C19 (Homo sapiens, UniProt P33261). The experiment in a line: Inhibition of CYP2C19. In kind it is ADME.
Cytochrome P450 2C19, sequence (P33261 whole entry): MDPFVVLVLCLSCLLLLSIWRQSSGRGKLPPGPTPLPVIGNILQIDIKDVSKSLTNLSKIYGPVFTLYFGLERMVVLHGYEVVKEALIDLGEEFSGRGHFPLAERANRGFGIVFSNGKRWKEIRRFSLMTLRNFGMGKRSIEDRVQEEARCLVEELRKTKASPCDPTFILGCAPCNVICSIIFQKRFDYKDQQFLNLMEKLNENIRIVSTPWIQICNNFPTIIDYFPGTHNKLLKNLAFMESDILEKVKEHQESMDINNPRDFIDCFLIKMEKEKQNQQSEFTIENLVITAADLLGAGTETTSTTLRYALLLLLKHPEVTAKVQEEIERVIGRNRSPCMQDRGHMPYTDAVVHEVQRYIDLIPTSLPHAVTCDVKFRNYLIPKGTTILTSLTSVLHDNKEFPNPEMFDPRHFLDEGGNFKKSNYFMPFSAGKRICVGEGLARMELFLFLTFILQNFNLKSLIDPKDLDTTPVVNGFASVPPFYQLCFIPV
Data set [11] is described as follows: Drug level in rat at 10 mg/kg, ip after 48 hrs. In kind it is ADME, organism-based. More on the design: dose 10 mg/kg, route intraperitoneal. As to conditions: in vivo, read-out: Drug uptake.
The nature of data set [12]: Oral bioavailability in rat at 10 mg/kg. In kind it is ADME, organism-based. To be noted: in vivo.
Data set [13] can be described thus: Binding affinity to sigma receptor at 10 uM.

Results on 26 molecules are retold here after ChEMBL document CHEMBL1143321, “Novel imidazole-based histamine H3 antagonists” (Bioorg Med Chem Lett, 2009).

T1 sequence (Q9Y5N1 whole entry): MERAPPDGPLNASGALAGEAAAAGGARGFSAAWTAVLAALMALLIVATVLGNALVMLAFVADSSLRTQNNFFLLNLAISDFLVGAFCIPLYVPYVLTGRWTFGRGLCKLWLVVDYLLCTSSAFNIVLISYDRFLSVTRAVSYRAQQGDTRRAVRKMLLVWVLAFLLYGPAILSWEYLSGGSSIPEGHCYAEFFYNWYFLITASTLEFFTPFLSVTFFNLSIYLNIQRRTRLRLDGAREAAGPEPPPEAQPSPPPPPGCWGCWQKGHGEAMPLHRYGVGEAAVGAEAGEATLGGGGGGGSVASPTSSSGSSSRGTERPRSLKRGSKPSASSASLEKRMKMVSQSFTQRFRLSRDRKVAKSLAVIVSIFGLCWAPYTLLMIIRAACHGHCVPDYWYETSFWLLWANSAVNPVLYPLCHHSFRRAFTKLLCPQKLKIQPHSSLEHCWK
Cytochrome P450 3A4, sequence (P08684 whole entry): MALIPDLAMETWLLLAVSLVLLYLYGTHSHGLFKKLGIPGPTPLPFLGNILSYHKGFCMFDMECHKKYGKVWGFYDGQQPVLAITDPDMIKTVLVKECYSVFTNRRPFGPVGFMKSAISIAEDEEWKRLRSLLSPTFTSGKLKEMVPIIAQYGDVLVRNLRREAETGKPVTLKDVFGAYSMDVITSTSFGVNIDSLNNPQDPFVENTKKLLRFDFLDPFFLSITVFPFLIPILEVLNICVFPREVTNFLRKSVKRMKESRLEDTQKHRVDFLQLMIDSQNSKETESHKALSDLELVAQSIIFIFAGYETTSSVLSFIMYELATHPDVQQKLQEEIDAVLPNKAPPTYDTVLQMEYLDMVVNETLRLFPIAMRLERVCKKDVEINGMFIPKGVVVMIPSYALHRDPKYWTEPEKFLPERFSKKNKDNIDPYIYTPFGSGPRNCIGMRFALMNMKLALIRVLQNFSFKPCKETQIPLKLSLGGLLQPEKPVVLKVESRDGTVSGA
Cytochrome P450 2C9, sequence (P11712 whole entry): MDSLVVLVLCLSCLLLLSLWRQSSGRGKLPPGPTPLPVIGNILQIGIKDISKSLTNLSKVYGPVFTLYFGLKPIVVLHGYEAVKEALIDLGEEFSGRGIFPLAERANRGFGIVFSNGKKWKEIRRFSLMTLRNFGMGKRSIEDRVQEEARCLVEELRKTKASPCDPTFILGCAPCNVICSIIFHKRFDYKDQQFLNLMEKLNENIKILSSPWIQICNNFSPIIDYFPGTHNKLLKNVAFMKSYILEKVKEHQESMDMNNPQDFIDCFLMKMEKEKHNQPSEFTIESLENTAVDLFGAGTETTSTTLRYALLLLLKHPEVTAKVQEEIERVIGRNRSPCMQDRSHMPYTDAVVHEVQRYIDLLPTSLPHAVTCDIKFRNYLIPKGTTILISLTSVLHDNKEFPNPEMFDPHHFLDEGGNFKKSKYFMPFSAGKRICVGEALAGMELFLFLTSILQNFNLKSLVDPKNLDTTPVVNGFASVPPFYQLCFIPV

Take `CN(C)CCCSc1ncc(/C(=N\O)c2ccc(Cl)cc2)n1C`: the Ki on Histamine H3 receptor [1] worked out at 2 nM. Moreover, the Kb on Histamine H3 receptor [2] is 3.98 nM.

On to `CN(C)CCSc1ncc(Cc2ccc(Cl)cc2)n1C`, for which the Ki on Histamine H3 receptor [1] turned out to be 71 nM. The Kb on Histamine H3 receptor [2] was 50.1 nM.

`CN(C)CCCSc1ncc(C(=O)c2ccc(Cl)cc2)n1C` yielded a Ki at Histamine H3 receptor [1] of 5 nM. Also, the Kb on Histamine H3 receptor [2] is 2 nM.

`Cn1c(C(=O)c2ccc(Cl)cc2)cnc1SCCCCN1CCCCC1` gave a Ki on Histamine H3 receptor [1] of 50 nM.

`Cn1c(C(=O)c2ccc(Cl)cc2)cnc1SCCCN1CCCCC1`: affinity at Histamine H3 receptor [1] was put at a Ki of 6 nM. Besides, the Kb at Histamine H3 receptor [2] is 20 nM. The half-life in [3] worked out at 2.48 h; in [4], 0.117 h.

In turn, `CC(C)N1CCC(COc2ncc(C(=O)c3ccccc3Cl)n2C)CC1` gave a Ki on Histamine H3 receptor [1] of 1 nM. For the same molecule, the Kb on Histamine H3 receptor [2] is 0.00794 nM.

Molecule `CC(C)N1CCC(COc2ncc(C(=O)c3ccc(Br)cc3)n2C)CC1` yielded a Ki at Histamine H3 receptor [1] of 3 nM. On Histamine H3 receptor [2], the Kb is 0.794 nM.

The molecule `CC(C)c1ccc(C(=O)c2cnc(OCC3CCN(C(C)C)CC3)n2C)cc1` gave an inhibition constant Ki at Histamine H3 receptor [1] of 9 nM. Also, the Kb on Histamine H3 receptor [2] is 1.26 nM.

With `CC(C)N1CCC(COc2ncc(C(=O)c3ccc(Cl)cc3)n2C)CC1`, the IC50 on Cytochrome P450 1A2, at Cytochrome P450 2C9, on Cytochrome P450 2D6, at Cytochrome P450 3A4 and against Cytochrome P450 2C19 was more than 10000 nM each time. Further, at Histamine H3 receptor [1], the affinity, expressed as Ki, was 3 nM. Besides, the clearance in data set [5] was determined as 9.3 mL/min/kg. Moreover, the half-life in [6] is 9 h. Also, the Kb on Histamine H3 receptor [2] was 0.501 nM; at Histamine H3 receptor [9], 10 nM. For the same molecule, the distribution volume (Vd) in data set [7] amounted to 5.2 L/kg. The values for the concentration at 1 h in [8] and in data set [10] were 2.6 µM and 17 µM, respectively. The concentration at 48 h in data set [11] worked out at 3.8 µM. The molecule further showed a bioavailability in data set [12] of 10%. In data set [13], this molecule had an Activity of 77%.

As for `CC(C)N1CCC(Oc2ncc(C(=O)c3ccc(Cl)cc3)n2C)CC1`, the affinity at Histamine H3 receptor [1] corresponds to a Ki of 10 nM. For the same molecule, at Histamine H3 receptor [2], the Kb is 6.31 nM.

With `c1cc(Sc2ccc([C@H]3CC[C@H]4CCCCN43)cc2)ccn1`, the Ki at Histamine H3 receptor [1] was found to be 12 nM.

`Cn1c(C(=O)c2ccc(Cl)cc2)cnc1CCCCN1CCCCC1` gave an inhibition constant (Ki) at Histamine H3 receptor [1] of 24 nM. The Kb at Histamine H3 receptor [2] was 10 nM. Further, the figures for the half-life in data set [3] and in data set [4] were 2.98 h and 0.0667 h, respectively.

On Histamine H3 receptor [1], `CC(C)N1CCC(Sc2ncc(C(=O)c3ccc(Cl)cc3)n2C)CC1` gave a Ki of 2 nM. Also, at Histamine H3 receptor [2], the Kb was 0.501 nM.

On Histamine H3 receptor [1], `CC(C)N1CCC(COc2ncc(C(=O)c3ccc(C(F)(F)F)cc3)n2C)CC1` displayed a Ki of 4 nM. For the same molecule, the Kb at Histamine H3 receptor [2] was 0.501 nM.

As for `Cn1c(C(=O)c2ccc(Cl)cc2)cnc1NCCCN1CCCCC1`, the Ki at Histamine H3 receptor [1] amounted to 50 nM. Further, the Kb at Histamine H3 receptor [2] is 39.8 nM. Also, the half-life was more than 3 h in data set [3] and 0.0667 h in data set [4].

`CC(C)N1CCC(COc2ncc(C(=O)c3ccccc3)n2C)CC1`: the Ki on Histamine H3 receptor [1] was found to be 1 nM. The Kb at Histamine H3 receptor [2] is 0.316 nM.

At Histamine H3 receptor [1], `Cn1c(C(=O)c2ccc(Cl)cc2)cnc1OCCCN1CCCCC1` gave a Ki of 14 nM. In addition, the Kb at Histamine H3 receptor [2] was 12.6 nM. The half-life in data set [3] was more than 3 h; in data set [4], 0.917 h.

Consider `CN(C)CCCSc1ncc(C(O)c2ccc(Cl)cc2)n1C` (stereo not given), for which, at Histamine H3 receptor [1], the affinity corresponds to a Ki of 18 nM. Further, the Kb on Histamine H3 receptor [2] was 3.98 nM.

In the case of `CC(C)N1CCC(COc2ncc(C(=O)c3cc(Cl)cc(Cl)c3)n2C)CC1`, on Histamine H3 receptor [2], the Kb was 1 nM.

Molecule `CCCCN(CCCC)CCCOc1ccc(-c2cn3cccc(C)c3n2)cc1` displayed a Ki on Histamine H3 receptor [1] of 4 nM.

In turn, `CC(C)N1CCC(COc2ncc(C(=O)c3ccc([N+](=O)[O-])cc3)n2C)CC1` returned a Ki at Histamine H3 receptor [1] of 4 nM. Also, the Kb at Histamine H3 receptor [2] is 1 nM.

With `CC(C)CCCSc1ncc(C(=O)c2ccc(Cl)cc2)n1C`, the inhibition constant (Ki) at Histamine H3 receptor [1] is more than 5000 nM. On Histamine H3 receptor [2], the Kb was 10000 nM.

On to `CC(C)N1CCC(COc2ncc(C(=O)c3cccc(Cl)c3)n2C)CC1`, for which, on Histamine H3 receptor [1], the Ki is 5 nM. Further, on Histamine H3 receptor [2], the Kb is 0.2 nM.

`CC(C)N1CCC(CCOc2ncc(C(=O)c3ccc(Cl)cc3)n2C)CC1` came in with a Ki at Histamine H3 receptor [1] of 70 nM. On Histamine H3 receptor [2], the Kb was 79.4 nM.

In turn, `CN(C)CCCSc1ncc(Cc2ccc(Cl)cc2)n1C` displayed a Ki at Histamine H3 receptor [1] of 20 nM. In addition, the Kb on Histamine H3 receptor [2] was 6.31 nM.

At Histamine H3 receptor [1], `CC(C)N1CCC(COc2ncc(C(=O)c3ccc(F)cc3)n2C)CC1` had a Ki of 3 nM. For the same molecule, at Histamine H3 receptor [2], the Kb is 0.316 nM.

What is called Ki is a measure of affinity in units of concentration, obtained from inhibition or displacement. Read a low Ki as a stronger hold on the target. As a reminder, the half-life is how long it takes for the measured level to halve. The term IC50 denotes the midpoint of a concentration-inhibition curve. Higher therefore signals weaker potency. A word on the clearance: it is the volume of plasma or blood freed of the substance per unit of time. Low readings indicate a low capacity for elimination, high ones a high capacity for elimination. The term Vd denotes the apparent volume that relates the amount in the body to the concentration in plasma or blood. High values mean extensive tissue distribution, low ones confinement near the circulation. Broadly, the bioavailability is dose-corrected exposure relative to a reference, in per cent. High values mean good availability, low ones poor availability.
